PMC5896266, “Development of Matrix Metalloproteinase-2 Inhibitors for Cardioprotection” (Frontiers in Pharmacology, 2018)

Key:
[1] = target: T1, MMP-2 enzyme isolated from rat heart (Rattus norvegicus, UniProt P33436); test: Gelatin zymography on cardiac MMP-2; type: biochemical
T1 construct: we used full-length, active MMP-2 enzymes isolated from healthy young adult rat hearts; from tissue; host or cells: rat heart homogenate (healthy young adult rats)
T1 sequence (P33436 110-662): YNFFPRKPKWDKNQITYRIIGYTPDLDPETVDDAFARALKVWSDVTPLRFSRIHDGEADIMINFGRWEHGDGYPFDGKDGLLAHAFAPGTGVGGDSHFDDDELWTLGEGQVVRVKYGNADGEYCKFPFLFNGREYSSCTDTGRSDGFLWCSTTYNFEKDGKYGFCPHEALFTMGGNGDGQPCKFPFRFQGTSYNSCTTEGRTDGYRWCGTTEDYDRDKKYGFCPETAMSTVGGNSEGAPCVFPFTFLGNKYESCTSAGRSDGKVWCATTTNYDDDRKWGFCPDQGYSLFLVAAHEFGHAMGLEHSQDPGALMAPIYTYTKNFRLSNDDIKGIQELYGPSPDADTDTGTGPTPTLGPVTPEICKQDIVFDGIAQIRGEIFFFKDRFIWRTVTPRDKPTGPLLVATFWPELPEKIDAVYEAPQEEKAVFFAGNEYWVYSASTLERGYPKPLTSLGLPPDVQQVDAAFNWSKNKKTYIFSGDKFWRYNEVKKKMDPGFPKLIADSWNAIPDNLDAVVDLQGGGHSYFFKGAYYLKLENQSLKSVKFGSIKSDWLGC
Description: Gelatin zymography was performed as described previously (Kupai et al., [2010]; Bencsik et al., [2017]). MMP-2 was isolated from rat heart homogenates as follows: 50 μg protein/lane were loaded and separated by electrophoresis under non-reducing conditions on an 8% SDS-polyacrylamide gels copolymerized with 2 mg/ml gelatin from porcine skin (Sigma-Aldrich; St. Louis, MO). After electrophoresis, gels were washed in 2.5% Triton-X 100 with gentle agitation and then incubated for 20 h at 37°C in zymography development buffer (50 mM Tris-HCl, pH 7.5, containing 5 mM CaCl2, 200 mM NaCl) in the presence or abscence of the MMP inhibitor compounds. Zymographic gels were stained in a 0.05% Coomassie Brilliant Blue R-250 solution followed by destaining, and then zymograms were scanned. MMP activity was detected as a colorless transparent zone on a blue background and the clear bands in the gel were quantified by densitometry using the Quantity One software (Bio-Rad, Hercules, CA). The obtained density values were measured and percentage of inhibition values were then calculated.
To confirm the MTS screen results, we tested the potential MMP inhibitor molecules on MMP-2 enzyme isolated from rat heart in vitro. Therefore, we applied the MMPIs at 1 and 100 μM final concentration in the enzyme's development buffer (Table 3).
After the chemical optimization of the novel MMP inhibitor lead candidates, we determined their IC50 values by using gelatin zymography. During zymographic analysis, we used full-length, active MMP-2 enzymes isolated from healthy young adult rat hearts. Subsequently, the cardio-cytoprotective effects of the selected candidates having the lowest IC50 values to MMP-2 were tested in cultured neonatal cardiac myocytes subjected to simulated I/R injury. Cardiac myocyte cell culture assay allowed a relatively high throughput biological efficacy testing (Gorbe et al., [2010]) of the selected lead candidates in several dose ranges at different levels of inhibition of MMP-2 activity.

isolated rat hearts = test: Myocardial infarct size in isolated rat heart, global ischemia/reperfusion (Langendorff); settings: 1 μM; 30 min global ischemia, 120 min reperfusion; vs vehicle
Description: Our experiment conforms to the National Institutes of Health Guide for the Care and Use of Laboratory Animals (NIH Pub. No. 85-23, Revised 1996) and also to the EU directive guideline for the care and use of laboratory animals published by the European Union (2010/63/EU) and was approved by the local ethics committee of the University of Szeged. Eight to ten week-old male Wistar rats weighing 300–350 g (Toxicoop Ltd., Budapest, Hungary) were anesthetized intraperitoneally with 60 mg/kg pentobarbital sodium (Euthasol, Produlab Pharma, Raamsdonksveer, The Netherlands). After administration of 500 U/kg heparin through the femoral vein, the heart was isolated and perfused according to Langendorff with oxygenated Krebs-Henseleit buffer at 37°C as previously described (Turan et al., [2006]). […] Heart rate and coronary flow were monitored throughout the perfusion protocol. […]
At the end of the 2-h reperfusion, the right ventricle was removed, hearts were frozen, cut into six 1-mm-thick slices, and incubated in 1% triphenyl-tetrazolium chloride (Sigma-Aldrich; St. Louis, MO) at 37°C to delineate infarcted tissue. Slices were then fixed and quantified by planimetry using Infarctsize™ 2.5 software (Pharmahungary, Szeged, Hungary) (Fekete et al., [2013]). Infarct size was expressed as a percentage of the left ventricle.

MMP-1 = target: T2, MMP-1 (Homo sapiens, UniProt P03956); test: MMP-1 inhibition (inhibitory profile); type: biochemical; settings: Table 2
T2 sequence (P03956 100-469): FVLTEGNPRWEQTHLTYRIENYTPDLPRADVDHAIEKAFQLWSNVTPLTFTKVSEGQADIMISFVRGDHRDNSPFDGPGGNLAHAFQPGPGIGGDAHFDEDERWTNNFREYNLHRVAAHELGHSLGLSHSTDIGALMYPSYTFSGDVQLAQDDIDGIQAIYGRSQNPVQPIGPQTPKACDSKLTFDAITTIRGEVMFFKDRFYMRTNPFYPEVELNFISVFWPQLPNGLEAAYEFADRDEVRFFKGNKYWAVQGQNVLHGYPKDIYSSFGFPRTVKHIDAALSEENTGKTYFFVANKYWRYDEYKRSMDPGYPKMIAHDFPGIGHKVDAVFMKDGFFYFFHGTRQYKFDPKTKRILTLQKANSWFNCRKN
Description: The compounds were measured for MMP-1, 2, 9, 13 to determine their inhibitory profile. Efficiency Index amplifies the two major required effects, selectivity against MMP-1 and the inhibitory activity.

inhibition at 100 µM ([1]; 100 μM, cardiac MMP-2, gelatin zymography, read-out: Inhibition (%)±SEM at 100 μM final MMP inhibitor concentration): 100%
EC50 ([1]; concentration labelled EC50 in Supplementary Figure 4, doses calculated according to IC doses in vitro): 2.5 µM
IC20 ([1]; concentration used in the ex vivo model, read-out: IC20 value (MMP-2 inhibition)): 1 µM
IC50 ([1]; most effective concentration in cell culture experiments, read-out: IC50 value (MMP-2 inhibition)): 2.5 µM
IC50 (MMP-1): 10 µM
SMILES: O=C(O)c1c[nH]c(CN(Cc2ccc(F)cc2)Cc2ccc(OCc3ccccc3)cc2)n1 [MMPI-1154]
myocardial infarct size (isolated rat hearts): reduced myocardial infarct size significanly
